Results from ChEMBL document CHEMBL1143809, “New bis-N9-(methylphenylmethyl)purine derivatives: synthesis and antitumor activity” (2007).

Columns and labels:
Format in all cases: functional
RXF 393 = test: Growth inhibition of human RXF393 cells after 48 hrs by SRB protein assay; details: RXF 393, 48 h
A549 = test: Growth inhibition of human A549 cells after 48 hrs by SRB protein assay; details: A549, 48 h
K562 = test: Growth inhibition of human K562 cells after 48 hrs by SRB protein assay; details: K562, 48 h
TK-10 = test: Growth inhibition of human TK10 cells after 48 hrs by SRB protein assay; details: TK-10, 48 h
[1] = Growth inhibition of human NCL-H522 cells after 48 hrs by SRB protein assay; details: NCL-H522, 48 h
IGROV-1 = test: Growth inhibition of human IGROV1 cells after 48 hrs by SRB protein assay; details: IGROV-1, 48 h
SF-539 = test: Growth inhibition of human SF539 cells after 48 hrs by SRB protein assay; details: SF-539, 48 h
DU-145 = test: Growth inhibition of human DU145 cells after 48 hrs by SRB protein assay; details: DU-145, 48 h
MCF7 = test: Anticancer activity against human MCF7 cells assessed as growth at 100 uM after 48 hrs by SRB protein assay relative to control; details: MCF7, 48 h, read-out: Activity
SK-MEL-2 = test: Growth inhibition of human SK-MEL-2 cells after 48 hrs by SRB protein assay; details: SK-MEL-2, 48 h
MDA-MB-435 = test: Growth inhibition of human MDA-MB-435 cells after 48 hrs by SRB protein assay; details: MDA-MB-435, 48 h
[2] = Growth inhibition of human NCL-H322M cells after 48 hrs by SRB protein assay
SW-620 = test: Growth inhibition of human SW620 cells after 48 hrs by SRB protein assay; details: SW-620, 48 h
ACHN = test: Growth inhibition of human ACHN cells after 48 hrs by SRB protein assay
U-251 = test: Growth inhibition of human U251 cells after 48 hrs by SRB protein assay; details: U-251, 48 h
MOLT-4 = test: Growth inhibition of human MOLT4 cells after 48 hrs by SRB protein assay; details: MOLT-4, 48 h
OVCAR-3 = test: Growth inhibition of human OVCAR-3 cells after 48 hrs by SRB protein assay; details: OVCAR-3, 48 h
SF-268 = test: Growth inhibition of human SF268 cells after 48 hrs by SRB protein assay; details: SF-268, 48 h
Hs-578T = test: Growth inhibition of human HS578T cells after 48 hrs by SRB protein assay
RPMI-8226 = test: Growth inhibition of human RPMI8226 cells after 48 hrs by SRB protein assay; details: RPMI-8226, 48 h
SK-MEL-28 = test: Growth inhibition of human SK-MEL-28 cells after 48 hrs by SRB protein assay; details: SK-MEL-28, 48 h
OVCAR-5 = test: Growth inhibition of human OVCAR5 cells after 48 hrs by SRB protein assay; details: OVCAR-5, 48 h
PC-3 = test: Growth inhibition of human PC3 cells after 48 hrs by SRB protein assay; details: PC-3, 48 h
T47D = test: Growth inhibition of human T47D cells after 48 hrs by SRB protein assay
SF-295 = test: Growth inhibition of human SF295 cells after 48 hrs by SRB protein assay; details: SF-295, 48 h
HCT-15 = test: Growth inhibition of human HCT15 cells after 48 hrs by SRB protein assay; details: HCT-15, 48 h
KM12 = test: Growth inhibition of human KM12 cells after 48 hrs by SRB protein assay; details: KM12, 48 h
HOP-62 = test: Growth inhibition of human HOP62 cells after 48 hrs by SRB protein assay; details: HOP-62, 48 h
OVCAR-8 = test: Growth inhibition of human OVCAR8 cells after 48 hrs by SRB protein assay; details: OVCAR-8, 48 h
BT-549 = test: Growth inhibition of human BT549 cells after 48 hrs by SRB protein assay; details: BT-549, 48 h
SNB-19 = test: Growth inhibition of human SNB19 cells after 48 hrs by SRB protein assay; details: SNB-19, 48 h
NCI/ADR-RES = test: Growth inhibition of human NCI/ADR-RES cells after 48 hrs by SRB protein assay
CCRF-CEM = test: Growth inhibition of human CCRF-CEM cells after 48 hrs by SRB protein assay
[3] = read-out: LC50 (the source's name)

Clc1nc(Cl)c2ncn(Cc3ccccc3Cn3cnc4c(Cl)nc(Cl)nc43)c2n1
TGI (RXF 393): 3.47 µM | CC50 (RXF 393; [3]): 7.08 µM | GI50 (A549): 4.79 µM | LC50 (A549): > 100 µM | TGI (A549): 20.4 µM | GI50 (K562): 1.95 µM | TGI (K562): 4.47 µM | CC50 (K562; [3]): 15.5 µM | GI50 (TK-10): 2.69 µM | LC50 (50% lethal concentration) (TK-10): 28.8 µM | TGI (TK-10): 7.94 µM | GI50 [1]: 3.39 µM | LC50 [1]: > 100 µM | TGI [1]: 9.12 µM | GI50 (IGROV-1): 5.25 µM | LC50 (50% lethal concentration) (IGROV-1): 57.5 µM | TGI (IGROV-1): 17.8 µM | LC50 (SF-539): 0.49 µM | TGI (SF-539): 0.14 µM | GI50 (DU-145): 1 µM | TGI (DU-145): 2.51 µM | CC50 (DU-145; [3]): 6.46 µM | growth at 100 µM (MCF7): 0% | GI50 (SK-MEL-2): 6.31 µM | TGI (SK-MEL-2): 26.9 µM | CC50 (SK-MEL-2; [3]): > 100 µM | GI50 (MDA-MB-435): 2.4 µM | LC50 (MDA-MB-435): 17.4 µM | TGI (MDA-MB-435): 5.5 µM | GI50 [2]: 14.5 µM | TGI [2]: 27.5 µM | CC50 [2, 3]: 52.5 µM | GI50 (SW-620): 1.86 µM | TGI (SW-620): 3.98 µM | CC50 (SW-620; [3]): 8.32 µM | GI50 (ACHN): 1.77 µM | LC50 (ACHN): 5.75 µM | TGI (ACHN): 3.24 µM | GI50 (U-251): 1.78 µM | TGI (U-251): 3.55 µM | CC50 (U-251; [3]): 69.2 µM | GI50 (MOLT-4): 1.66 µM | LC50 (MOLT-4): 8.13 µM | TGI (MOLT-4): 3.63 µM | GI50 (OVCAR-3): 1.66 µM | LC50 (OVCAR-3): 5.5 µM | TGI (OVCAR-3): 3.02 µM | GI50 (SF-268): 6.76 µM | LC50 (SF-268): 95.5 µM | TGI (SF-268): 26.9 µM | GI50 (Hs-578T): 3.09 µM | LC50 (concentration killing 50% of cells) (Hs-578T): > 100 µM | TGI (Hs-578T): 11.2 µM | GI50 (RPMI-8226): 0.55 µM | TGI (RPMI-8226): 2.34 µM | GI50 (SK-MEL-28): 3.98 µM | LC50 (SK-MEL-28): > 100 µM | TGI (SK-MEL-28): 24.6 µM | GI50 (OVCAR-5): 20.9 µM | TGI (OVCAR-5): 38 µM | CC50 (OVCAR-5; [3]): 70.8 µM | GI50 (PC-3): 2.24 µM | TGI (PC-3): 6.76 µM | CC50 (PC-3; [3]): 38.9 µM | GI50 (T47D): 2.19 µM | LC50 (T47D): > 100 µM | TGI (T47D): 5.89 µM | GI50 (SF-295): 15.1 µM | LC50 (SF-295): 57.3 µM | TGI (SF-295): 28.2 µM | GI50 (HCT-15): 1.86 µM | LC50 (HCT-15): 12.6 µM | TGI (HCT-15): 4.47 µM | GI50 (KM12): 3.31 µM | LC50 (concentration killing 50% of cells) (KM12): 34.7 µM | TGI (KM12): 10 µM | GI50 (HOP-62): 21.9 µM | LC50 (HOP-62): 72.4 µM | TGI (HOP-62): 39.8 µM | GI50 (OVCAR-8): 3.02 µM | LC50 (OVCAR-8): 49 µM | TGI (OVCAR-8): 8.13 µM | GI50 (BT-549): 0.17 µM | TGI (BT-549): 1.51 µM | CC50 (BT-549; [3]): 5.01 µM | GI50 (SNB-19): 3.98 µM | TGI (SNB-19): > 100 µM | CC50 (SNB-19; [3]): > 100 µM | GI50 (NCI/ADR-RES): 20.4 µM | LC50 (NCI/ADR-RES): 91.2 µM | TGI (NCI/ADR-RES): 43.6 µM | GI50 (CCRF-CEM): 1.41 µM | TGI (CCRF-CEM): 3.09 µM | CC50 (CCRF-CEM; [3]): 6.61 µM
